Holding throughout (assay type): biochemical
One test deals with T1, CaMKK2 (Homo sapiens, UniProt Q96RR4).
T1 construct: made in house; host or cells: HEK293 (transient transfection, anti-FLAG immunoprecipitate)
As to the kind of experiment: Cell-free CaMKK2 kinase assay (CaMKKtide). Conditions: increasing concentrations, 0 to 1 μM. As for the experimental part:
Heterotrimeric human AMPK FLAG- α1β1γ1, FLAG- α2β1γ1, and FLAG- α2β2γ1, as well as human FLAG-CaMKK2 and FLAG-ULK1, were produced in mammalian HEK293 cells as described ([66], [67]). For AMPK expression, the cells were triply transfected at 60% confluency using FuGene HD (Roche Applied Science) and 1 μg of pcDNA3 plasmid expression constructs for AMPK Flag-α1, β1-Myc, β2-Myc, and HA-γ1. For CaMKK2 expression, the cells were transfected with 1 μg of pcDNA3 Flag-CaMKK2 plasmid. For ULK1 expression, the cells were transfected with […] of pcDNA3 FLAG-ULK1 plasmid. After 48 hours, the transfected cells were harvested by rinsing with ice-cold PBS, followed by rapid lysis using 500 μl of lysis buffer. AMPK, CaMKK2, and ULK1 kinase activities were determined by phosphorylation of synthetic peptide substrates: SAMS (HMRSAMSGLHLVKRR), CaMKKtide ([…]), and S108tide. (KLPLTRSHNNFVARRR), respectively. Briefly, recombinant AMPK, CaMKK2, or ULK1 were immunoprecipitated from 10 μg of transfected cultured cell lysate using 10 μl of anti-FLAG M2 agarose beads [50% (v/v)] […] Radioactivity was quantified by liquid scintillation counting. […]

The target of a further test is JNK1 (Homo sapiens, UniProt P45983). As to the kind of experiment: Kinase panel (140 human kinases). Here is the method: (§1) BAY-3827 and BAY-974 were assayed against a 140-human kinase panel at 0.1 μM and at 1 μM (BAY-3827) concentration in a [γ-^33P] ATP–based radioactive filter binding assay ([31], [65]) setup in duplicates with reported mean remaining kinase percentage activity alongside SD (table S1). Assays were performed at either 5, 20, or 50 μM ATP to be at or below the Michaelis constant for ATP for each enzyme and conducted by the services offered by the International Centre for Kinase Profiling at MRC Protein Phosphorylation and Ubiquitylation Unit, University of Dundee (https://www.kinase-screen.mrc.ac.uk/services/premier-screen).

Another test has as its target EPH-B2 (Homo sapiens, UniProt P29323). As to the kind of experiment: Kinase panel (140 human kinases). As for the experimental part:
as §1

Another test has as its target T2, IKKb (Homo sapiens, UniProt O14920).
T2 sequence (O14920 1-756): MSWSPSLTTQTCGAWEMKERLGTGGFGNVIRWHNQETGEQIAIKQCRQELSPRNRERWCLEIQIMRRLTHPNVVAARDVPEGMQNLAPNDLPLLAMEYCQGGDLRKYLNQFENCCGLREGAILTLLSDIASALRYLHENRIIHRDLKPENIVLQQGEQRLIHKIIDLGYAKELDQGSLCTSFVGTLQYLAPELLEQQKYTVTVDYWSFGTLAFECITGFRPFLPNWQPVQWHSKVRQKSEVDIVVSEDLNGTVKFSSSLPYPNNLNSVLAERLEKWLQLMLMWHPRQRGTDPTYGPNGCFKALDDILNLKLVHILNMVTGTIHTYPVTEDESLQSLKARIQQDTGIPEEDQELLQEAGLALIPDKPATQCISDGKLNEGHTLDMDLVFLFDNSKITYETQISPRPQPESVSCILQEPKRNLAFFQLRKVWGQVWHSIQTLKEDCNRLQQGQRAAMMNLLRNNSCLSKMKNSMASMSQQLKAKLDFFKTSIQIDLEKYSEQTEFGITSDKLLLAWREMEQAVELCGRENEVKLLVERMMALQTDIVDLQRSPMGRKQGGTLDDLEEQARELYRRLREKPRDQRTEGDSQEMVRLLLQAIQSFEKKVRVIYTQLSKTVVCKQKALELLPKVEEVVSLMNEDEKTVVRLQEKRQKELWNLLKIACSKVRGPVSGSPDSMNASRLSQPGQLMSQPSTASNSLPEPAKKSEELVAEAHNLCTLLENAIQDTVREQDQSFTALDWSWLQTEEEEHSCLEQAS
The experiment in a line: Kinase panel (140 human kinases). Here is the method: as §1

The target in another test is CSK (Homo sapiens, UniProt P41240). As to the kind of experiment: Kinase panel (140 human kinases). Here is the method:
as §1

Another test has as its target MPSK1 (Homo sapiens, UniProt O75716). As to the kind of experiment: Kinase panel (140 human kinases). As for the experimental part: as §1
The target of the next test is WNK1 (Homo sapiens, UniProt Q9H4A3). The experiment in a line: Kinase panel (140 human kinases). As for the experimental part:
as §1

A further test has as its target MARK2 (Homo sapiens, UniProt Q7KZI7). As to the kind of experiment: Kinase panel (140 human kinases). Here is the method:
as §1

The target of another test is MST2 (Homo sapiens, UniProt Q13188). The experiment in a line: Kinase panel (140 human kinases). Here is the method: as §1
The next test addresses DAPK1 (Homo sapiens, UniProt P53355). As to the kind of experiment: Kinase panel (140 human kinases). Here is the method:
as §1

A further test deals with DDR2 (Homo sapiens, UniProt Q16832). As to the kind of experiment: Kinase panel (140 human kinases). Here is the method: as §1
Chain of DDR2 (Q16832 22-855): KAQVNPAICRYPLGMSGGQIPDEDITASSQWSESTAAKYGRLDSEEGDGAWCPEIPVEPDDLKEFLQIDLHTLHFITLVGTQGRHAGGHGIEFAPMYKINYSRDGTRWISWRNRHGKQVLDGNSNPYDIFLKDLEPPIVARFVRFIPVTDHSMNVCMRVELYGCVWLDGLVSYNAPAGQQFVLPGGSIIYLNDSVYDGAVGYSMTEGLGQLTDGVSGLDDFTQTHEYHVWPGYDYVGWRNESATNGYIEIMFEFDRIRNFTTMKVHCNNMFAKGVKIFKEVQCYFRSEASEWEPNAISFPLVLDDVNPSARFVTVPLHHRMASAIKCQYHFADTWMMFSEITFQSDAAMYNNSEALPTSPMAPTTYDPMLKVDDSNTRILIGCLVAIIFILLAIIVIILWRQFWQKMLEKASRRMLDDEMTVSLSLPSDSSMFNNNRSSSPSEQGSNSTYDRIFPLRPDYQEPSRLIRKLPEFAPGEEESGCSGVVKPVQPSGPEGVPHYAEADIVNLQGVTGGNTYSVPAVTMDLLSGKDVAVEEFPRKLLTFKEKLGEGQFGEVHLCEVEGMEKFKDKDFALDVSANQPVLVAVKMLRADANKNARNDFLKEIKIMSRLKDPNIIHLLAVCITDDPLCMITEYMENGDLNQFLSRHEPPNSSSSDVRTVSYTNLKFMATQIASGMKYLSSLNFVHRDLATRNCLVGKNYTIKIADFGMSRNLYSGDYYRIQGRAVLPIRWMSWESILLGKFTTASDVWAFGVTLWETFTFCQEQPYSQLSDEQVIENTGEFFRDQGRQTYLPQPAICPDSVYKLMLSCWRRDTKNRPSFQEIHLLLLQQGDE
The next test concerns the target PHK. The experiment in a line: Kinase panel (140 human kinases). Conditions: 0.1 μM. As for the experimental part:
as §1

The target in another test is SGK1 (Homo sapiens, UniProt O00141). The experiment in a line: Kinase panel (140 human kinases). As for the experimental part: as §1
The target of the next test is p38g MAPK (Homo sapiens, UniProt P53778). The experiment in a line: Kinase panel (140 human kinases). As for the experimental part: as §1
Chain of p38g MAPK (P53778 whole entry): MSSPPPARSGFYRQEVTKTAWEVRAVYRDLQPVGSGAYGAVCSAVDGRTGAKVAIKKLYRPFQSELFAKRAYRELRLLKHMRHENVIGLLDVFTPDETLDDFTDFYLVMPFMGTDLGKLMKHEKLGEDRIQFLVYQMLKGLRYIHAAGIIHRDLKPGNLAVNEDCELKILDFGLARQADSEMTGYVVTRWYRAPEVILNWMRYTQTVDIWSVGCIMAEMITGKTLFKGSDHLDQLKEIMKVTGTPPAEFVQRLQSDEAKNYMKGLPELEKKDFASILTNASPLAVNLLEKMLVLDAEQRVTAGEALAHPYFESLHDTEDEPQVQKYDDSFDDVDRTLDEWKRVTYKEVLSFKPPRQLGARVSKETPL
The target of a further test is MAP4K3 (Homo sapiens, UniProt Q8IVH8). The experiment in a line: Kinase panel (140 human kinases). As for the experimental part:
as §1

The target in another test is p38d MAPK (Homo sapiens, UniProt O15264). As to the kind of experiment: Kinase panel (140 human kinases). Here is the method:
as §1

A further test concerns the target JNK2 (Homo sapiens, UniProt P45984). The experiment in a line: Kinase panel (140 human kinases). As for the experimental part:
as §1

In the next test the target is OSR1 (Homo sapiens, UniProt O95747). As to the kind of experiment: Kinase panel (140 human kinases). Here is the method: as §1

Chain of WNK1 (Q9H4A3 whole entry): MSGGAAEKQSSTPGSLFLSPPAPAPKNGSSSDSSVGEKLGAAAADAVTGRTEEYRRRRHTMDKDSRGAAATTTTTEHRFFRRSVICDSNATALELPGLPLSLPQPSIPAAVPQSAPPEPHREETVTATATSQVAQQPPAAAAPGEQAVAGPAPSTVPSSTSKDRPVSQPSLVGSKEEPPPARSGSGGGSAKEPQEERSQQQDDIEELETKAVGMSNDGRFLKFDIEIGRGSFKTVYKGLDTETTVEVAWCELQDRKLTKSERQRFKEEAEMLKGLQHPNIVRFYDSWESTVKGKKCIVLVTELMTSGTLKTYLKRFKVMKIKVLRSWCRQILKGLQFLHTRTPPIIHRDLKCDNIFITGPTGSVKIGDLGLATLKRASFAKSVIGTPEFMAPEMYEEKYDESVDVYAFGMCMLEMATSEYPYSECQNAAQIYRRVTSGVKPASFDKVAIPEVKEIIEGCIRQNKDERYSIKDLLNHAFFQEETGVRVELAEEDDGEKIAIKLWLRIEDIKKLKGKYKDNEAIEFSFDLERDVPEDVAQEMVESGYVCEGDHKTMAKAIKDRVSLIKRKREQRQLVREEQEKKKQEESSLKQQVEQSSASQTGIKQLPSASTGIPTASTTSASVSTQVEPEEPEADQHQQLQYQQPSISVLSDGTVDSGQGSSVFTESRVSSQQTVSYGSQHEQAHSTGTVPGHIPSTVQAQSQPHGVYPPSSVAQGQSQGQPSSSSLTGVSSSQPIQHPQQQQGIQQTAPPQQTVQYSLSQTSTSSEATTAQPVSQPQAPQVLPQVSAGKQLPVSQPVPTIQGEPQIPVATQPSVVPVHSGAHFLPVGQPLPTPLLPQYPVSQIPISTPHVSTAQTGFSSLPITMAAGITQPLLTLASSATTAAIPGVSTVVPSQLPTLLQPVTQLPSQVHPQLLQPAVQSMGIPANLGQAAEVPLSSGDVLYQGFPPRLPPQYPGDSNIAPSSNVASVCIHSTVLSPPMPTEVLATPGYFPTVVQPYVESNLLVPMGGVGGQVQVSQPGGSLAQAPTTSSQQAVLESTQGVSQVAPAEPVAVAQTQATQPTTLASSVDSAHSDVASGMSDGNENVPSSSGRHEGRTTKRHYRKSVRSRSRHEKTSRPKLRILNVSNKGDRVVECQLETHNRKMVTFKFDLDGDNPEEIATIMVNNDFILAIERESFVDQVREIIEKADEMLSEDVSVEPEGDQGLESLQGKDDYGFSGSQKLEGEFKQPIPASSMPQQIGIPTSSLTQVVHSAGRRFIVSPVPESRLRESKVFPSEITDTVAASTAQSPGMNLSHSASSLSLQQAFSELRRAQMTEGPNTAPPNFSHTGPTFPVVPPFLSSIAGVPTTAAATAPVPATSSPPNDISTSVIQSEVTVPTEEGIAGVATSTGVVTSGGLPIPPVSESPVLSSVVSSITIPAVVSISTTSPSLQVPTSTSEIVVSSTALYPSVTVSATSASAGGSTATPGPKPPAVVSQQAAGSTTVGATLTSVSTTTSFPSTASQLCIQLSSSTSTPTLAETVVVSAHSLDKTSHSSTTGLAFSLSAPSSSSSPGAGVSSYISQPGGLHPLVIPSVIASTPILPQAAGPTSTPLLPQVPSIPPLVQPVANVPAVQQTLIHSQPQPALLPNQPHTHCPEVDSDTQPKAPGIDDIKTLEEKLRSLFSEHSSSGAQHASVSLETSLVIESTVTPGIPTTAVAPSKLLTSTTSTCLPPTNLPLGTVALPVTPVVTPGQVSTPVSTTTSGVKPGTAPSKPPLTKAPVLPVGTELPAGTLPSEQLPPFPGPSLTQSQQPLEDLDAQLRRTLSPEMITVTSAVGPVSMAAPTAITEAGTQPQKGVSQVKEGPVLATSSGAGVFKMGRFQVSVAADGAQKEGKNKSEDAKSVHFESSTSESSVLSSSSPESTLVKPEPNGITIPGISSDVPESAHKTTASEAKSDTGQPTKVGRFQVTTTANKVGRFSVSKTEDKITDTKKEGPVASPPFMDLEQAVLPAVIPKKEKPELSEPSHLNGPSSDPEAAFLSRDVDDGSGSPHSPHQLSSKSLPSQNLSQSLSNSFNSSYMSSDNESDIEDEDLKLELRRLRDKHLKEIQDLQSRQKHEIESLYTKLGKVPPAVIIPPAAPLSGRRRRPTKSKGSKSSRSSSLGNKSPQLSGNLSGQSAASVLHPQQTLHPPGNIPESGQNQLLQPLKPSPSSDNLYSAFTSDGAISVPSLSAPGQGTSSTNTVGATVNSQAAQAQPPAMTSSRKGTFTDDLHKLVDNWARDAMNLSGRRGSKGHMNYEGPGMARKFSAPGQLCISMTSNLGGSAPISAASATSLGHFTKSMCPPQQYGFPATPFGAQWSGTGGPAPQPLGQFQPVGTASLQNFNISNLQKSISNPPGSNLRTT
Chain of CSK (P41240 whole entry): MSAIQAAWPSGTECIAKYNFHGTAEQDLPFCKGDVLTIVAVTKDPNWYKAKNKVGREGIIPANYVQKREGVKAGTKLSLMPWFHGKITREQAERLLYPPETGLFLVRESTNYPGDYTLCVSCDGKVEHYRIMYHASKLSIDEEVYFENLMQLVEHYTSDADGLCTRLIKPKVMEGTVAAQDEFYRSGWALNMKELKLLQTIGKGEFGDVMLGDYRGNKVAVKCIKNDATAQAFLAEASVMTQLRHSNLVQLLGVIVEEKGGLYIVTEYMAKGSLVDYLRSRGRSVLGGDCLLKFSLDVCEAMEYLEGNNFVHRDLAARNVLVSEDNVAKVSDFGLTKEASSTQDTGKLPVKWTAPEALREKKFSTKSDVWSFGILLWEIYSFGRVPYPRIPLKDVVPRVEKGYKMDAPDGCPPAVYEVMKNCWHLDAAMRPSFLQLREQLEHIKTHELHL
Chain of MARK2 (Q7KZI7 whole entry): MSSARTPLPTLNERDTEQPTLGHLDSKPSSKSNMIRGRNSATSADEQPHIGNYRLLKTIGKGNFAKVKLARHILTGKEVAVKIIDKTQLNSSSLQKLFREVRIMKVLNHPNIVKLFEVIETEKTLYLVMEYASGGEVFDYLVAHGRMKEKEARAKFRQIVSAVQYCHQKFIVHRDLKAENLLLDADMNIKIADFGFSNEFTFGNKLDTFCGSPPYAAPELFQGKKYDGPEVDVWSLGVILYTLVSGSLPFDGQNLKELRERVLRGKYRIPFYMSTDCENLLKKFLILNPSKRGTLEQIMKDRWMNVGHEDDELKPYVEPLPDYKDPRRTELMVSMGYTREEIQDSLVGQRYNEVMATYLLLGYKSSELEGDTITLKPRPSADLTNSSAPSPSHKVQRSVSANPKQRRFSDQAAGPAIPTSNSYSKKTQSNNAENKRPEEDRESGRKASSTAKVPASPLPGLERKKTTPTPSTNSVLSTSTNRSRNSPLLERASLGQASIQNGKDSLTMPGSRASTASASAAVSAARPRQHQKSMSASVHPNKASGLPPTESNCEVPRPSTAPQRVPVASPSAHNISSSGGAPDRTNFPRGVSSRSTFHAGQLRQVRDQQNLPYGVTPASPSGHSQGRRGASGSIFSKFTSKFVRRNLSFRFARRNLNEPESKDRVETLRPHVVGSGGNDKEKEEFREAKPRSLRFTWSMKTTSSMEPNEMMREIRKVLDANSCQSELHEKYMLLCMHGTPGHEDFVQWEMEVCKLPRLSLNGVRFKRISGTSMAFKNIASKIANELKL

In the case of `CC1=C(C#N)C(c2ccc3c(c2)c(NC(=O)c2ccccc2C)nn3C)C(C#N)=C(C)N1` [BAY-974, N-[5-(3,5-dicyano-2,6-dimethyl-1,4-dihydropyridin-4-yl)-1-methylindazol-3-yl]-2-methylbenzamide], the “inhibitory effect on kinase activity” value against CaMKK2 is “no inhibitory effect”. For the same compound, the remaining activity (commonly the signal under treatment as a percentage of the control signal) at 0.1 µM at JNK1 was found to be 106%; on EPH-B2 it was 82%; at IKKb, 89%; on CSK it was 123%; on MPSK1, 105%; on WNK1, 117%. Also, the remaining activity at 0.1 µM on MARK2 was determined as 87%; on MST2, 94%; at DAPK1 it was 109%; on DDR2 it was 89%; at SGK1 it was 127%; at p38g MAPK, 95%. In addition, the remaining activity at 0.1 µM is 73% on MAP4K3, 108% at p38d MAPK, 104% at JNK2 and 109% on OSR1. Moreover, the “Kinase activity remaining (%)” value on PHK is 120%.

Turning to `CCc1ccccc1C(=O)Nc1n[nH]c2c(C)c(F)c(C3C(C#N)=C(C)N(C)C(C)=C3C#N)cc12` [BAY-3827, N-[5-(3,5-dicyano-1,2,6-trimethyl-4H-pyridin-4-yl)-6-fluoro-7-methyl-1H-indazol-3-yl]-2-ethylbenzamide], on CaMKK2, the “inhibitory effect on kinase activity” value was “no inhibitory effect”. Also, the remaining activity at 0.1 µM on JNK1 worked out at 94%; on EPH-B2 it was 98%; on IKKb, 105%; on CSK, 79%; on MPSK1 it was 135%; on WNK1 it was 101%. The remaining activity at 0.1 µM turned out to be 77% on MARK2; 85% on MST2; 94% on DAPK1; 80% on DDR2; 97% on SGK1; 90% at p38g MAPK. Further, the remaining activity at 0.1 µM on MAP4K3 amounted to 82%; on p38d MAPK, 99%; on JNK2, 105%; at OSR1 it was 111%. Besides, the remaining activity at 1 µM at IKKb (1 μM, IKKβ, cross-referenced with screen data of ref 37, read-out: activity remaining after treatment) was at least 99%; on WNK1 (1 μM, cross-referenced with screen data of ref 37, read-out: activity remaining after treatment), at least 99%. The inhibition of kinase with PHK is 80 to 85%.
